Test [1] can be described thus: Effect of lactisole on body weight (applicant's general finding). Type of test: in vivo. Conditions: also when encapsulated and/or coated to avoid contact with the taste receptor of the mouth.
For test [2] the following is noted: rats, high lactisole concentrations added to the diet; considered statistically insignificant; cited from earlier work.
Test [3] is described as follows: Triglycerides in blood plasma of obese marmosets treated with coated lactisole pills. Type of test: in vivo, common marmoset monkeys (Callithrix jacchus). Set-up: Triglycerides in blood plasma: unit not given here. The procedure:
5 mm diameter coated pill were made, comprising 20 mg tablettose, 26.5 mg Avicell PH 102, 2.5 mg Crospovidone and 1 mg Mg-stearate for the placebo, and 35 mg sodium 2-(4-methoxyphenoxy)propionate (Endeavour speciality chemicals), 11.5 mg Avicel PH 102, 2.5 mg Crospovidone and 1 mg Mg-stearate for the Lactisole pills. Pills were coated in a fluidized bed (GCPG1, Glatt), at a spray rate of 4 g/min, atomic pressure 1.5 bar, inlet air temperature 36° C., product temperature 31° C. at maximal air velocity. The composition of the coating solution was 11.4% Eudragit® EPO(Röhm Pharma), 1.14% Sodium lauryl sulphate (α-pharma), 4% Mg-stearate (α-pharma), 1.72% stearic acid (α-pharma) and water ad 100%.
Adult male and female common marmoset monkeys (Callithrix jacchus) were from the breeding colony of the German Primate Center (DPZ), Göttingen, Germany. Animals were housed in pairs in air-conditioned facilities on a 12 hr/12: HR light/dark cycle.
Animals were fed two times a day: mash feeding, containing 15 g of test diet in the morning, and 60 g of test diet in the afternoon (value per animal). Each time before feeding, the animals received two pills (either placebo or lactisole) in nutrical gel.
Three groups of marmosets were compared: 11 obese animals treated with lactisole, 11 obese animals receiving placebo and 12 lean control animals receiving placebo. The experiment is carried out for 10 weeks, and bodyweight, glycated hemoglobin HbA1c, and glucose in blood plasma is measured. […]
Obese animals were treated for 7 weeks with lactisole (70 mg, two times a day, before feeding). Control obese and lean animals received placebo pills.

The test system of test [4] is SGLT1. The experiment in a line: SGLT1 protein expression (western blot of luminal membrane vesicles) in wild-type mice on low carbohydrate plus sucralose diet. Type of test: in vivo, mouse. Conditions: 2 weeks. The procedure: (§1) Male CD-1 and C57BL/6 mice, six weeks old, from Charles River Laboratories were used. The α-gustducin knock out mouse was described by Wong et al. (1996); the T1R3 knock out mouse was described by Damak et al. 2003).
(§2) High and low carbohydrate diets were resp. TestDiet® 5810 and TestDiet® 5787-9. For the sucralose test, the low carbohydrate diet was supplemented with sucralose (1,6-dichloro-1,6-dideoxy-beta-D-fructofuranosyl-4-chloro-4-deoxy-alpha-galactopyranoside) at 2 mM.
(§3) Animals were killed by concussion followed by cervical dislocation. The entire small intestine was removed and flushed with ice-cold 0.9% NaCl, opened longitudinally, rinsed in saline and mucous removed by blotting. The small intestine was then divided into proximal, mid and distal sections and the mucosa removed by scraping. Mucosal scrapings were frozen immediately in liquid nitrogen and stored at −80° C. until use. […]
(§4) Second, groups of wild-type and T1R3 and α-gustducin KO mice were placed on each of three iso-caloric diets a) low carbohydrate, b) high carbohydrate, and c) low carbohydrate+artificial sweetener (sucralose), for two weeks. After this time the mice were killed and the small intestines were removed, divided into proximal, mid and distal regions, and SGLT1 expression, at protein and mRNA levels, were measured in each.

Test [5] in a line: Body weight gain and food intake of mice on low carbohydrate diet with or without sucralose. Conditions: C57BL/6 mice, low carbohydrate diet with 0.3% sucralose, ad libitum, 12 weeks. Type of test: in vivo, mice (C57BL/6). From the text: induction of weight increase in mice by the use of an artificial sweetener Two groups of mice (C57BL/6) were fed ad libitum with a low carbohydrate diet (1.9% remaining carbohydrate, Purina), with or without 0.3% sucralose (Tate and Lyle). Food consumption and body weight was followed for a period of 12 weeks.

Test [6] deals with SGLT1. Description: SGLT1 expression in α-gustducin knock-out mice on low carbohydrate plus sucralose diet. The format is in vivo, mouse. Conditions: α-gustducin KO mice, 2 weeks. As to the method: as §1, §2, §3, §4
The conditions of test [7]: male and female dogs, diet with various concentrations of sucralose; cited from earlier work.
For test [8], the system named is SGLT1. Description: SGLT1 expression in T1R3 knock-out mice on low carbohydrate plus sucralose diet. The format is in vivo, mouse. Conditions: T1R3 KO mice, 2 weeks. As to the method:
as §1, §2, §3, §4

Test [9] concerns SGLT1. Description: SGLT1 mRNA levels (real-time PCR) in small intestine of wild-type mice on low carbohydrate plus sucralose diet. Type of test: in vivo, mouse. Conditions: proximal and mid intestinal regions, sucralose (2 mM) added to low carbohydrate diet, 2 weeks, qPCR. The procedure: as §1, §2, §3, §4

Take `COc1ccc(OC(C)C(=O)O)cc1` (stereo not drawn) [Lactisole, sodium 2-(4-methoxyphenoxy) propanoate]: in [1], the “effect on body weight” value was “body weight loss”. Moreover, in test [2], the body-weight gain result was “reduction in body-weight gain”. For the same molecule, the “Triglycerides in blood plasma” value was 2.75 in test [3] (obese marmosets N = 11, high carb feeding week 0, week −4 with respect to lactisole treatment (before treatment)); 2.24 in test [3] (obese marmosets N = 11, high carb feeding week 3, week −1 with respect to lactisole treatment (before treatment)); 1.82 in test [3] (obese marmosets N = 11, high carb feeding week 5, week 1 of lactisole treatment, 70 mg two times a day); 1.85 in [3] (obese marmosets N = 11, high carb feeding week 7, week 3 of lactisole treatment, 70 mg two times a day); 1.57 in test [3] (obese marmosets N = 11, high carb feeding week 9, week 5 of lactisole treatment, 70 mg two times a day); 1.52 in test [3] (obese marmosets N = 11, high carb feeding week 11, week 7 of lactisole treatment, 70 mg two times a day). For the same molecule, in test [3] (obese marmosets, 7 weeks lactisole 70 mg two times a day before feeding), the “serum triglyceride level, course in treated obese animals” value is recorded as “decreasing to the level of the lean control”.
In the case of `OC[C@H]1O[C@H](O[C@]2(CCl)O[C@H](CCl)[C@@H](O)[C@@H]2O)[C@H](O)[C@@H](O)[C@H]1Cl` [sucralose, 1,6-dichloro-1,6-dideoxy-beta-D-fructofuranosyl-4-chloro-4-deoxy-alpha-galactopyranoside], the SGLT1 protein expression result in the test on SGLT1 [4] is reported as “increased”. Besides, in test [5], the “average increase in body weight gain versus control group” value stood at 42% and the “food intake higher than control group” value is 7.5%. Also, in the test on SGLT1 [6], the “SGLT1 mRNA response” value was “no increase” and the SGLT1 protein response entry was “no increase”. Also, in [7], the “body weight gain and final body weight” value is “gaining more rapidly body weight and reached a higher final body weight level”. Further, in the test with SGLT1 [8], the “SGLT1 mRNA response” value is “no increase” and the SGLT1 protein response result is “no increase”. Moreover, the “increase of SGLT1 mRNA” value with SGLT1 [9] was 30-70%.
